Settings: Liquid

CCCOCC(C)O (centres undefined) [1-propoxy-2-propanol]
Settings	vapor or sublimation pressure [kPa]
298.15 K	0.341
303.15 K	0.481
308.15 K	0.672
313.15 K	0.937
318.15 K	1.271
323.15 K	1.707
328.15 K	2.256
333.15 K	2.967
338.15 K	3.839
343.15 K	4.951
348.15 K	6.29
353.15 K	7.963
358.15 K	9.95
363.15 K	12.38
368.15 K	15.27
373.15 K	18.7
378.15 K	22.65
383.15 K	27.42
388.15 K	32.8
393.15 K	39.18
398.15 K	46.38
403.15 K	54.75
408.15 K	64.1
413.15 K	74.98

Source: the NIST ThermoML archive (doi:10.1016/j.fluid.2008.06.022)
